Broadly, the IC50 is the concentration that inhibits the measured activity by half.

One assay deals with T1, recombinant human PDK1 (Homo sapiens, UniProt O15530).
T1 construct: containing amino acids 51-556 of the human PDK1 enzyme; made in house; host or cells: Sf9 insect cells
T1 sequence (O15530 51-556): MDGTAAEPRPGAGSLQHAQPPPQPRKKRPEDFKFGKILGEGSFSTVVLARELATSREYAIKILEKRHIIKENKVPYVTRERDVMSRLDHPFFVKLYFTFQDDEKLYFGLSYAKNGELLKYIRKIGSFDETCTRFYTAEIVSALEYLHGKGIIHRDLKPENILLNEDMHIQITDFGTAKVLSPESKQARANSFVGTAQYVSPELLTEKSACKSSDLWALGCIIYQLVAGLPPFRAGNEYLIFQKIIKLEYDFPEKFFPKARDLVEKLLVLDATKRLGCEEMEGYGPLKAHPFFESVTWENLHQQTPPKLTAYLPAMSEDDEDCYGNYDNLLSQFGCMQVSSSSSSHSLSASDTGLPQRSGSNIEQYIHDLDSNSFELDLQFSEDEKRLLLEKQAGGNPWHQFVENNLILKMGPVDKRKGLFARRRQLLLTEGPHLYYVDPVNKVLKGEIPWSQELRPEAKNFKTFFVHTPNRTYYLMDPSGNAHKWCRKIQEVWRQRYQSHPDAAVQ
As to the kind of experiment: PDK1 IMAP fluorescence polarization assay (inhibition of peptide substrate phosphorylation). As to conditions: Table 6; 10 nM PDK1 enzyme, 100 nM peptide substrate, 100 nM PIFtide, 2.5 uM ATP, 1.5 hours. The class given is biochemical. For orientation: In fluorescence polarisation assays a small probe gives low polarisation when free and higher when bound to something large.
As to `NCC1CCN(c2c(F)cccc2NC(=O)c2nc(-c3cc(NCc4ccc(F)c(F)c4)nc(N)n3)c[nH]2)CC1` [Compound 75, 4-[2-amino-6-[[(3,4-difluorophenyl)methyl]amino]-4-pyrimidinyl]-N-[2-[4-(aminomethyl)-1-piperidinyl]-3-fluorophenyl]-1H-imidazole-2-carboxamide], the IC50 fell in the range of 1 to 50 nM. On the same count and under the same terms, the same measure for `Cc1cc(-c2c[nH]c(C(=O)Nc3cccc(F)c3N3CCC(C(=O)N4CC[C@@H](F)C4)CC3)n2)ccn1` [Compound 92, N-[3-fluoro-2-[4-[(3(R)-fluoro-1-pyrrolidinyl)carbonyl]-1-piperidinyl]phenyl]-4-(2-methyl-4-pyridinyl)-1H-imidazole-2-carboxamide]: 1000 to 5000 nM; for `Cc1cc(-c2c[nH]c(C(=O)Nc3cccc(F)c3N3CCC(C(=O)N4CC5CNC(C5)C4)CC3)n2)ccn1` (stereo not drawn) [Compound 91, N-[2-[4-(3,6-diazabicyclo[3.2.1]oct-3-ylcarbonyl)-1-piperidinyl]-3-fluorophenyl]-4-(2-methyl-4-pyridinyl)-1H-imidazole-2-carboxamide]: 51 to 250 nM. On the same count and under the same terms, for `NCC1CCN(c2ccc(N)cc2NC(=O)c2ncc[nH]2)CC1` [Compound 3, N-[5-amino-2-[4-(aminomethyl)-1-piperidinyl]phenyl]-1H-imidazole-2-carboxamide] the value was 251 to 1000 nM; for `Cc1cc(-c2c[nH]c(C(=O)Nc3cccc(F)c3N3CCC(C(=O)N4CCC5(CC4)CNC(=O)C5)CC3)n2)ccn1` [Compound 93, N-[3-fluoro-2-[4-[(3-oxo-2,8-diazaspiro[4.5]dec-8-yl)carbonyl]-1-piperidinyl]phenyl]-4-(2-methyl-4-pyridinyl)-1H-imidazole-2-carboxamide], 251 to 1000 nM. On the same count and under the same terms, for `CNC1(C(N)=O)CCN(c2ccc(N)cc2NC(=O)c2ncc[nH]2)CC1` [Compound 2, 1-[4-amino-2-[(1H-imidazol-2-ylcarbonyl)amino]phenyl]-4-(methylamino)-4-piperidinecarboxamide] the value was 1000 to 5000 nM; for `N#Cc1cccc(-c2c[nH]c(C(=O)Nc3cccc(F)c3N3CCC(CN)CC3)n2)n1` [Compound 44, N-[2-[4-(aminomethyl)-1-piperidinyl]-3-fluorophenyl]-4-(6-cyano-2-pyridinyl)-1H-imidazole-2-carboxamide], 251 to 1000 nM.

Consider `Cc1cc(-c2c[nH]c(C(=O)Nc3cccc(F)c3N3CCC[C@@H](N)C3)n2)nc(N)n1` [Compound 29, 4-(2-amino-6-methyl-4-pyrimidinyl)-N-[2-(3(R)-amino-1-piperidinyl)-3-fluorophenyl]-1H-imidazole-2-carboxamide], for which the IC50 fell in the range of 1 to 50 nM. Same read-out and setting: for `N[C@@H]1CCCN(c2c(F)cccc2NC(=O)c2nc(-c3ccnc(O)c3)c[nH]2)C1` [Compound 25, N-[2-(3(R)-amino-1-piperidinyl)-3-fluorophenyl]-4-(2-hydroxy-4-pyridinyl)-1H-imidazole-2-carboxamide] the value was 1000 to 5000 nM; for `CC(=O)c1ccc(-c2c[nH]c(C(=O)Nc3cccc(F)c3N3CCC(CN)CC3)n2)s1` [Compound 45, 4-(5-acetyl-2-thienyl)-N-[2-[4-(aminomethyl)-1-piperidinyl]-3-fluorophenyl]-1H-imidazole-2-carboxamide], 1000 to 5000 nM; for `Cc1cc(-c2c[nH]c(C(=O)Nc3cccc(F)c3N3CCC(C(N)=O)CC3)n2)ccn1` [Compound 82, 1-[2-fluoro-6-[[[4-(2-methyl-4-pyridinyl)-1H-imidazol-2-yl]carbonyl]amino]phenyl]-4-piperidinecarboxamide], 1000 to 5000 nM.

As for `CN(C)CCOc1ccccc1NC(=O)c1nc(-c2c[nH]c3ccccc23)c[nH]1` [Compound 17, N-[2-[2-(dimethylamino)ethoxy]phenyl]-4-(1H-indol-3-yl)-1H-imidazole-2-carboxamide], the half-maximal inhibitory concentration (IC50) is 251 to 1000 nM. For `Cc1cc(-c2c[nH]c(C(=O)Nc3cccc(F)c3N3CCC(C(=O)N4CCOCC4CO)CC3)n2)ccn1` (stereo not drawn) [Compound 80, N-[3-fluoro-2-[4-[[3-(hydroxymethyl)-4-morpholinyl]carbonyl]-1-piperidinyl]phenyl]-4-(2-methyl-4-pyridinyl)-1H-imidazole-2-carboxamide], the half-maximal inhibitory concentration (IC50) fell in the range of 251 to 1000 nM. Take `N[C@@H]1CCCN(c2c(F)cccc2NC(=O)c2nc(-c3cnn(Cc4ccccn4)c3)c[nH]2)C1` [Compound 7, N-[2-(3(R)-amino-1-piperidinyl)-3-fluorophenyl]-4-[1-(2-pyridinylmethyl)-1H-pyrazol-4-yl]-1H-imidazole-2-carboxamide]: the IC50 is 1000 to 5000 nM. Still for that read-out and setting: the same measure for `N[C@@H]1CCCN(c2c(F)cccc2NC(=O)c2nc(-c3ccc(F)cc3F)c[nH]2)C1` [Compound 38, N-[2-(3(R)-amino-1-piperidinyl)-3-fluorophenyl]-4-(2,4-difluorophenyl)-1H-imidazole-2-carboxamide]: 251 to 1000 nM; for `Cc1nc(N)cc(-c2c[nH]c(C(=O)Nc3cccc(F)c3N3CCC(CN)CC3)n2)n1` [Compound 49, N-[2-[4-(aminomethyl)-1-piperidinyl]-3-fluorophenyl]-4-(6-amino-2-methyl-4-pyrimidinyl)-1H-imidazole-2-carboxamide]: 51 to 250 nM; for `Cc1cc(-c2c[nH]c(C(=O)Nc3cccc(F)c3N3CCC(CN(C)C)CC3)n2)ccn1` [Compound 50, N-[2-[4-[(dimethylamino)methyl]-1-piperidinyl]-3-fluorophenyl]-4-(2-methyl-4-pyridinyl)-1H-imidazole-2-carboxamide]: 251 to 1000 nM.

Staying with this assay, now noted: Table 10; compounds 97-132.
As for `CNc1nc(-c2c[nH]c(C(=O)Nc3cccc(F)c3N3CCC(CN)CC3)n2)cc(N2CCN(C(C)=O)CC2)n1` [Compound 101, 4-(6-(4-acetylpiperazin-1-yl)-2-(methylamino)pyrimidin-4-yl)-N-(2-(4-(aminomethyl)piperidin-1-yl)-3-fluorophenyl)-1H-imidazole-2-carboxamide], the half-maximal inhibitory concentration (IC50) was 1 to 50 nM.

As to `CNc1nc(-c2c[nH]c(C(=O)Nc3cccc(F)c3N3CCC(CN)CC3)n2)cc(N2CCN(C(=O)OC)CC2)n1` [Compound 100, methyl 4-(6-(2-(2-(4-(aminomethyl)piperidin-1-yl)-3-fluorophenylcarbamoyl)-1H-imidazol-4-yl)-2-(methylamino)pyrimidin-4-yl)piperazine-1-carboxylate], the half-inhibitory concentration (IC50) fell in the range of 1 to 50 nM. Same read-out and setting: the same measure for `CNc1nc(-c2c[nH]c(C(=O)Nc3cccc(F)c3N3CCC(CN)CC3)n2)cc(N2CC[C@@](OC)(C(=O)NC3CCCCC3)C2)n1` [Compound 129, (S)—N-(2-(4-(aminomethyl)piperidin-1-yl)-3-fluorophenyl)-4-(6-(3-(cyclohexylcarbamoyl)-3-methoxypyrrolidin-1-yl)-2-(methylamino)pyrimidin-4-yl)-1H-imidazole-2-carboxamide]: 1 to 50 nM.

For the molecule `CNc1nc(-c2c[nH]c(C(=O)Nc3cccc(F)c3N3CCC(CN)CC3)n2)cc(N2CC[C@@](OC)(C(N)=O)C2)n1` [Compound 128, (S)—N-(2-(4-(aminomethyl)piperidin-1-yl)-3-fluorophenyl)-4-(6-(3-carbamoyl-3-methoxypyrrolidin-1-yl)-2-(methylamino)pyrimidin-4-yl)-1H-imidazole-2-carboxamide], the 50% inhibitory concentration (IC50) lay within 1 to 50 nM. On the same count and under the same terms, the same measure for `CNc1nc(-c2c[nH]c(C(=O)Nc3cccc(F)c3N3CCC(CN)CC3)n2)cc(N2CC[C@@](COC)(C(=O)NC3CC3)C2)n1` [Compound 131, (R)—N-(2-(4-(aminomethyl)piperidin-1-yl)-3-fluorophenyl)-4-(6-(3-(cyclopropylcarbamoyl)-3-(methoxymethyl)pyrrolidin-1-yl)-2-(methylamino)pyrimidin-4-yl)-1H-imidazole-2-carboxamide]: 1 to 50 nM; for `CNc1nc(-c2c[nH]c(C(=O)Nc3ccccc3N3CCC4(CC3)OCCO4)n2)cc(N2CC(C(=O)NC3CCCCC3)CCC2C)n1` (racemic) [Compound 113]: 1 to 50 nM; for `CNc1nc(-c2c[nH]c(C(=O)Nc3cccc(F)c3N3CCOC[C@H]3C)n2)cc(N2CC(C(=O)NC3CCCCC3)CCC2C)n1` (mixture of isomers) [Compound 122, N-cyclohexyl-1-(6-(2-(3-fluoro-2-((R)-3-methylmorpholino)phenylcarbamoyl)-1H-imidazol-4-yl)-2-(methylamino)pyrimidin-4-yl)-6-methylpiperidine-3-carboxamide]: 1 to 50 nM. On the same count and under the same terms, the same measure for `CNc1nc(-c2c[nH]c(C(=O)Nc3cccc(F)c3N3CCC4(CCNC4)CC3)n2)cc(N2CC(C(=O)NC3CCCCC3)CCC2C)n1` (racemic) [Compound 119, N-cyclohexyl-1-(6-(2-(3-fluoro-2-(2,8-diazaspiro[4.5]decan-8-yl)phenylcarbamoyl)-1H-imidazol-4-yl)-2-(methylamino)pyrimidin-4-yl)-6-methylpiperidine-3-carboxamide]: 1 to 50 nM.

On to `CNc1nc(-c2c[nH]c(C(=O)Nc3ccccc3N3CCNCC3)n2)cc(N2C[C@@H](C(=O)NC3CCCCC3)CC[C@@H]2C)n1` (racemic) [Compound 104, N-cyclohexyl-6-methyl-1-(2-(methylamino)-6-(2-(2-(piperazin-1-yl)phenylcarbamoyl)-1H-imidazol-4-yl)pyrimidin-4-yl)piperidine-3-carboxamide], for which the half-inhibitory concentration (IC50) is 51 to 250 nM. `CNc1nc(-c2c[nH]c(C(=O)Nc3ccccc3N3CCNCC3)n2)cc(N2CCN(C(C)=O)CC2)n1` [Compound 103, 4-(6-(4-acetylpiperazin-1-yl)-2-(methylamino)pyrimidin-4-yl)-N-(2-(piperazin-1-yl)phenyl)-1H-imidazole-2-carboxamide]: the half-inhibitory concentration (IC50) lay in the range of 51 to 250 nM.
